In patent publication US20220249596A1, “PIC1 PEPTIDE COMPOSITIONS AND METHODS OF USE THEREOF FOR TREATMENT OF HYPOXIC ISCHEMIC ENCEPHALOPATHY” (REALTA HOLDINGS, LLC, priority 2019, published 2022):
Entries after “also recorded” stand apart in the source; their conditions may differ. No end group written: not given here.

Legend:
Assay type in all cases: in vivo, rat
[1] = tested on: apoptosis in cortex and hippocampus; test: TUNEL/DAPI/C1q staining of brain sections 48 hours after injury
Method: To assess the effect of PIC1 on cell death at 48 hours after the initial injury, TUNEL staining, alone or in combination with C1q staining, was utilized to measure DNA strand breaks that are generated during apoptosis.
TUNEL/C1q staining was performed as follows. Five (5) μm paraffin-embedded coronal brain sections on slides were incubated (1 hour; 60° C.), deparaffinized with xylene, and rehydrated with ethanol (100%, 95%, 70%; RT). Endogenous peroxidase activity was blocked (0.3% H2O2/MeOH; 10 minutes; RT), and heat induced antigen retrieval was performed (when indicated) using 10 mM sodium citrate, pH 6.0. 10% normal serum (from the same species as the host of the secondary antibody) was used to block and to dilute antibodies. Samples were washed twice for 10 min each, in PBST between each step.
For C1q/TUNEL co-staining, tissue was incubated with the TUNEL solution according to manufacturer's instructions (In Situ Cell Death Detection Kit, Roche Molecular Diagnostics, Pleasanton, Calif.), followed by blocking with NGS for one hour at room temperature. C1q was probed using 1:300 mouse anti-C1q (Abcam) in NGS for 30 min at 37° C., followed by incubation in 1:500 goat anti-mouse (Abcam) AF 568 for 30 min at 37° C. All samples were mounted with aqueous mounting media comprising 4′,6-diamidino-2-phenylindole (Vectashield antifade mounting medium with DAPI, Vector Laboratories, Burlingame, Calif.) and coverslipped.
Fluorescent images of the cortex were taken at 20× magnification using a digital camera (DP70, Olympus Center, Valley Forge, Pa.), mounted on a BX50 Olympus microscope. Adobe Photoshop CS5 was used to merge immunofluorescence images, and Image J (National Institutes of Health) was used for analysis.

[2] = tested on: brain lesion after hypoxia/ischemia; test: T2 MRI for brain tissue viability, lesion volume and edema
Method: Neonatal hypoxia/ischemia was induced in Wistar rat pups (age of 10±1 days, P10) according to Rice et al. (1981) and with modifications. Rat pups were anesthetized with 5% isoflurane (in 70% N2O and 30% O2; flow 300 ml/min). During the operation the concentration of anesthetic was reduced to 1.0-1.5% to maintain adequate level of anesthesia. The rectal temperature was maintained at 37.0±1.5° C. with a homeothermic blanket system (Harvard Apparatus, UK). Just before first incision, pups received buprenorphine 0.03 mg/kg i.p. After midline skin incision, the right common carotid artery (CCA) was exposed and permanently ligated distal from the carotid bifurcation. Thereafter the wound was closed, disinfected, and the animals were allowed to recover from anesthesia for 1 hour before subjecting them to hypoxic conditions. Pups were carefully monitored for possible post-surgical complications. An additional dose of buprenorphine 0.03 mg/kg was administered s.c. twice a day during the first 48 hours post-surgery.
Therma-treatment (6 hours) was started 1 hour post-hypoxia, to maintain normothermia (36+/−1° C. rat internal temperature) or hypothermia (31° C.+/−1 rat internal temperature), as follows. After CCA ligation, suturing and recovery for 1 h, pups were placed into chamber submerged to heated (+37° C.) water bath. Chamber was ventilated with heated (gas lines submerged to +37° C. water) mixture of 8% O2/92% N2 while pups were subjected to hypoxia. During the hypoxia period, chamber inner temperature was monitored. Pups were kept under hypoxic conditions for 60 minutes, except in group 5. In all pups the rectal temperature was monitored to ensure normothermic body temperature during hypoxia exposure. Rectal temperature after the H/I period was measured and recorded at the end of the exposure.
No other preparation was needed. The thawed tubes were kept on ice until dosing. […]
Brain tissue viability was performed as follows. Lesion T2 and Control T2 values (in milliseconds) were measured at 24 hours and 21 days after H/I, and the data are shown as average. […]

[3] = T-maze test; settings: six weeks after surgery, between study groups, pooled and separated genders
Text: No other preparation was needed. The thawed tubes were kept on ice until dosing.
The T-maze test apparatus was plastic with two 45 cm long arms, which extend at right-angles from a 57 cm long alley (see www.noldus.com/animal-behavior-research/t-maze). The arms have a width of 10 cm and were surrounded by 10 cm high walls. The test consists of two trials at an interval of five minutes, during which time the animals are returned to their home cages. During an eight minute acquisition trial, one of the short arms was closed. In a three minute test trial, rats had access to both arms and to the alley. Time spent in each of the arms and in the long alley was assessed. Cognitively healthy rats tended to spend more time in the novel arm than in the familiar one or in the alley.
In an eight minute acquisition trial, while the novel arm is blocked, each rat was lowered to the beginning of the alley arm, facing the wall, and allowed to freely explore the maze's arms (start arm (alley arm), center and familiar arm), while the novel arm was inaccessible. […]
During the three minute test trial, with all three arms accessible (the wall of the novel arm was removed), each rat was allowed to freely explore the whole maze. Time spent in each of the arms was recorded using EthoVision XT 11 automated tracking system (Noldus Information Technology).

Substance: IALILEPICCQERAA-dPEG24 (cysteine pairing not given here) [PIC1]
- TUNEL positive cells (DNA fragmentation), cortex and hippocampus ([1]; 48 hours, versus NT (P=0.02) and HT (P=0.04)): significantly fewer
- cell count ([1]; PIC1- versus HT-treated animals): no significant difference
- nucleus size ([1]; versus NT (P=0.02) and HT (P=0.04)): significantly improved
- nuclear density by DAPI staining ([1]; versus NT animals, P=0.01): markedly improved
- C1q/TUNEL co-localization ([1]; versus NT animals, ipsilateral cortex): qualitative reduction
- cell counts (stained nuclei) ([1]; versus NT, P=0.03): significantly improved
- lesion volume in MRI ([2]; 24 hours, pooled genders, H/I+PIC1+hypo versus H/I+hypo, p<0.05): reduction; also recorded: significant difference
- edema (%) in MRI ([2]; 21 days, pooled genders, H/I+PIC1+normo versus H/I+hypo, p<0.01): reduction
- control T2 value ([2]; contralateral cortex, between study groups, pooled or separated genders): no changes; also recorded: No statistical significances
- T-maze: time spent in novel and familiar arms, alley, center [3]: no significant differences; also recorded: No statistical significances
